Results on 17 molecules are retold here after ChEMBL document CHEMBL4699547, “Design, synthesis, and multitargeted profiling of N-benzylpyrrolidine derivatives for the treatment of Alzheimer's disease” (Bioorg Med Chem, 2020).

pIC50: −log10 of the molar value. Calls of active or inactive are those of the source. The rule behind the calls is not given here.

Data set [1] concerns the target T1, Cholinesterase (Homo sapiens, UniProt P06276). The data set can be described thus: Inhibition of human BChE by Ellman's method. In general terms: In Ellman's method for cholinesterases, released thiocholine reacts with DTNB.
The target in the next data set is Beta-secretase 1 (Homo sapiens, UniProt P56817). The data set can be described thus: Inhibition of human BACE-1 by FRET assay.
Sequence of Beta-secretase 1 (P56817 whole entry): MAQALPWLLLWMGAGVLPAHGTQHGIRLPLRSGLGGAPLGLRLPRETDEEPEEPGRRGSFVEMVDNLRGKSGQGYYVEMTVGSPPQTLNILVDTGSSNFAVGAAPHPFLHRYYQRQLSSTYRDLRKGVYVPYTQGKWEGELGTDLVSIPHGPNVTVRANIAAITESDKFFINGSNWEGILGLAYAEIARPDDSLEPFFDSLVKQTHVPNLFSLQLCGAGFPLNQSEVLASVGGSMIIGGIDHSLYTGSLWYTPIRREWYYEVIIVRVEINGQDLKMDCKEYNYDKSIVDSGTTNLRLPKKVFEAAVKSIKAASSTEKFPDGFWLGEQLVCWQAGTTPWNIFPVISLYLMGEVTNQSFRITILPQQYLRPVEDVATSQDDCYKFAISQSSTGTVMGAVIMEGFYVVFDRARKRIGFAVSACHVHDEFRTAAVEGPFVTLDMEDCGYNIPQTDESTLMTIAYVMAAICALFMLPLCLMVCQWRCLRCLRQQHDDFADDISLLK
For a further data set, the target named is Acetylcholinesterase (Homo sapiens, UniProt P22303). The data set can be described thus: Inhibition of human AChE by Ellman's method.
Sequence of Acetylcholinesterase (P22303 whole entry): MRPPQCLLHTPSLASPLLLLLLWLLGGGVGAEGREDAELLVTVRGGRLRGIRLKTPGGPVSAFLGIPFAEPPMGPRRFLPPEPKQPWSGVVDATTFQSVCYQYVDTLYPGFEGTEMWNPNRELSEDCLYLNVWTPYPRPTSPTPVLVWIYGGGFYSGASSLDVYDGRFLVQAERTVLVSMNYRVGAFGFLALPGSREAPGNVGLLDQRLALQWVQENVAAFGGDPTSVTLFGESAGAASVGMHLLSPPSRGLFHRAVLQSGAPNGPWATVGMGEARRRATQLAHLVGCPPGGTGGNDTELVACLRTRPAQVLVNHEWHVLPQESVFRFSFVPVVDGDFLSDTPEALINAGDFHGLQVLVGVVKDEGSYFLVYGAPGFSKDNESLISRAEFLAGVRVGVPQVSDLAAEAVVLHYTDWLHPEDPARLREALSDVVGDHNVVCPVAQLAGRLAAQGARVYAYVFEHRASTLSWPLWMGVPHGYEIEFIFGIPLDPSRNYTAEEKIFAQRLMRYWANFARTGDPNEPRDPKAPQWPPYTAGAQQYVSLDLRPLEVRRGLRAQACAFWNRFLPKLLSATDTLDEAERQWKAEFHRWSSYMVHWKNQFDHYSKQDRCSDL
Data set [2] concerns Rattus norvegicus. The data set can be described thus: Cognitive enhancing effect in scopolamine-induced Wistar rat model of amnesia assessed as effect on total arm entries at 5 mg/kg, po pretreated for 7 days followed by scopolamine challenge by Y-maze test. Type of data set: functional, organism-based. The settings on record: time 7.0 day.
The species named for data set [3] is Rattus norvegicus. The settings on record: Wistar, dose 5.0 mg/kg, time 7.0 day.
The target of data set [4] is T1, Cholinesterase. The data set can be described thus: Inhibition of BChE (unknown origin).
The nature of data set [5]: Permeability of the compound at 25 ug/ml after 18 hrs by PAMPA-BBB assay. For orientation: In PAMPA a lipid-coated filter parts donor from acceptor wells.
A short description of data set [6]: Acute toxicity in po dosed Wistar rat assessed as maximum tolerated dose by OCED guideline method. Type of data set: organism-based. The following applies: in vivo.
The test system of data set [7] is Rattus norvegicus. The data set can be described thus: Ex vivo inhibition of AChE in brain of scopolamine-induced Wistar rat model of amnesia at 2.5 to 10 mg/kg, po pretreated for 7 days followed by scopolamine challenge using acetylthiocholine iodide as substrate by Ellman's method. Type of data set: functional, organism-based. The following applies: dose mg/kg 2.5-10, time 7.0 day.

For data set [8], the system named is Rattus norvegicus. The data set is described as follows: Antioxidant activity in scopolamine-induced Wistar rat model of amnesia assessed as decrease in MDA level at 2.5 to 10 mg/kg, po pretreated for 7 days followed by scopolamine challenge […]. Type of data set: functional, organism-based. The following applies: dose mg/kg 2.5-10, time 7.0 day.

The subject of the next data set is SH-SY5Y. The data set is described as follows: Neuroprotective activity against amyloid beta (1 to 42)-induced oxidative stress in human SH-SY5Y cells assessed as effect on cell viability at 10 to 80 uM measured after 24 hrs by MTT assay (reference value: 62.1 %). Type of data set: functional. The settings on record: dose microM 10-80. (Tetrazolium assays rely on reduction of a dye to a coloured formazan, in cell work by metabolically active cells.)

Data set [9] is described as follows: Acute toxicity in Wistar rat assessed as abnormal signs at 175 to 1750 mg/kg, po measured up to 14 days by OCED guideline method. In kind it is organism-based. The following applies: in vivo, 336 h, dose 175-1750 mg/kg, time <=14 day.
Data set [10] deals with Rattus norvegicus. The data set can be described thus: Cognitive enhancing effect in po dosed scopolamine-induced Wistar rat model of amnesia assessed as increase in spontaneous alteration pretreated for 7 days followed by scopolamine challenge by Y-maze test. In kind it is functional, organism-based. The following applies: dose mg/kg 5-10, time 7.0 day.
Data set [11] deals with Rattus norvegicus. The data set can be described thus: Antioxidant activity in scopolamine-induced Wistar rat model of amnesia assessed as increase in SOD level at 2.5 to 10 mg/kg, po pretreated for 7 days followed by scopolamine challenge […]. Type of data set: functional, organism-based. The following applies: dose mg/kg 2.5-10, time 7.0 day.

Data set [12] deals with Rattus norvegicus. The data set can be described thus: Cognitive enhancing effect in scopolamine-induced Wistar rat model of amnesia assessed as effect on total arm entries at 2.5 to 10 mg/kg, po pretreated for 7 days followed by scopolamine challenge by Y-maze test. Type of data set: functional, organism-based. The following applies: dose mg/kg 2.5-10, time 7.0 day.
In data set [13] the test system is Rattus norvegicus. The data set can be described thus: Cognitive enhancing effect in scopolamine-induced Wistar rat model of amnesia assessed as increase in spontaneous alteration at 10 mg/kg, po pretreated for 7 days followed by scopolamine challenge by Y-maze test. In kind it is functional, organism-based. The settings on record: time 7.0 day.

T1 sequence (P06276 whole entry): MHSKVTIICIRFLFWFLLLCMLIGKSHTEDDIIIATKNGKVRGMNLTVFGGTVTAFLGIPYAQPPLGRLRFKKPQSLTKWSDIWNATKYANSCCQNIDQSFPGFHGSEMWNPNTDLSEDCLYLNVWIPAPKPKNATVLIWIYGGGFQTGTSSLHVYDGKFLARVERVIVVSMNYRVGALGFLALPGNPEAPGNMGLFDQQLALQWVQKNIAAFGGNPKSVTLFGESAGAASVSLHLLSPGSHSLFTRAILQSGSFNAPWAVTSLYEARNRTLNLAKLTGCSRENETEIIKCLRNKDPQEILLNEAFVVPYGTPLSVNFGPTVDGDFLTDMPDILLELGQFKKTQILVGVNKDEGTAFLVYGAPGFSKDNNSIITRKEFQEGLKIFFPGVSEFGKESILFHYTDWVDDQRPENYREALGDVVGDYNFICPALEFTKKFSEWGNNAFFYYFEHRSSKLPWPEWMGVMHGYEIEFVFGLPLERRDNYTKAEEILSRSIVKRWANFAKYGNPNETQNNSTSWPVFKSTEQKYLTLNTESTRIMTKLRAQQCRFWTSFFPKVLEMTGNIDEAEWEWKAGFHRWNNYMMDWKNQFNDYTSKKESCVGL

By pIC50 is commonly meant the negative decadic logarithm of the IC50, by convention in mol/L. The low end stands for a large IC50, the high end for a small IC50. As for `COc1cccc(CNC2CCN(Cc3ccccc3)C2)c1OC` (stereo not drawn), the pIC50 at Cholinesterase [1] was 5.26; at Beta-secretase 1, 5.54; against Acetylcholinesterase it was 5.36.
With `Cc1cccc(/C=N\C2CCN(Cc3ccccc3)C2)c1` (stereo not drawn), the figures for the negative logarithm of the IC50 (pIC50) against Cholinesterase [1] and against Acetylcholinesterase were 5.24 and below 5.00, respectively.
For the molecule `FC(F)(F)Oc1ccc(/C=N\C2CCN(Cc3ccccc3)C2)cc1` (stereo not drawn), the negative logarithm of the IC50 (pIC50) was 6.16 on Cholinesterase [1], 5.68 on Beta-secretase 1 and 6.06 against Acetylcholinesterase.
As to `COc1cc2c(cc1OC)C(=O)C(CC1CCN(Cc3ccccc3)CC1)C2` (stereo not drawn), in the data set with Rattus norvegicus [2], the result was inactive. In addition, in the data set filed under Rattus norvegicus [3], the inhibition result is “Active”.
`Fc1ccc(/C=N\C2CCN(Cc3ccccc3)C2)cc1` (stereo not drawn): the figures for the negative logarithm of the IC50 (pIC50) on Cholinesterase [1], on Beta-secretase 1 and at Acetylcholinesterase were 5.98, 5.71 and 5.97, respectively.
Take `c1ccc(CC2CCCN(CCNC3CCN(Cc4ccccc4)C3)C2)cc1` (stereo not drawn): at Cholinesterase [4], the pIC50 is 5.74.
For the molecule `Fc1ccc(/C=N\C2CCN(Cc3ccccc3)C2)c(F)c1` (stereo not drawn), the results for the negative logarithm of the IC50 (pIC50) at Cholinesterase [1], against Beta-secretase 1 and against Acetylcholinesterase were 5.86, 5.58 and 6.02, respectively.
By Papp is commonly meant the rate of passage across a membrane or cell layer, normalised by area and donor concentration. Read a high Papp as ready permeation. Turning to `Fc1ccc(CNC2CCN(Cc3ccccc3)C2)cc1` (stereo not drawn), the pIC50 at Cholinesterase [1] is 6.10; against Beta-secretase 1 it was 6.08; against Acetylcholinesterase it was 6.83. This molecule also yielded a Papp at 18 h, 25 ug/ml in [5] of 4.2 ×10⁻⁶ cm/s.
On to `Clc1ccc(CNC2CCN(Cc3ccccc3)C2)cc1` (stereo not drawn), for which the values for the negative-log IC50 (pIC50) against Cholinesterase [1], against Beta-secretase 1 and on Acetylcholinesterase were 6.58, 6.79 and 6.75, respectively. Also, the Papp at 18 h, 25 ug/ml in data set [5] stood at 4.1 ×10⁻⁶ cm/s.
Regarding `FC(F)(F)c1ccc(CNC2CCN(Cc3ccccc3)C2)cc1` (stereo not drawn), the pIC50 against Cholinesterase [1] is 6.01; against Beta-secretase 1, 6.01; against Acetylcholinesterase, 6.89. Besides, the apparent permeability (Papp) at 18 h, 25 ug/ml in data set [5] came out at 6.3 ×10⁻⁶ cm/s.
Turning to `c1ccc(CNC2CCN(Cc3ccccc3)C2)cc1` (stereo not drawn), the pIC50 on Cholinesterase [1] is 5.80; against Beta-secretase 1 it was 5.62; against Acetylcholinesterase it was 5.95.
In the case of `O=[N+]([O-])c1ccc(CNC2CCN(Cc3ccccc3)C2)cc1` (stereo not drawn), the pIC50 at Cholinesterase [1] is 5.87; on Beta-secretase 1, 5.74; on Acetylcholinesterase, 6.13.
For `Cc1cccc(CNC2CCN(Cc3ccccc3)C2)c1` (stereo not drawn), the results for the pIC50 against Cholinesterase [1] and at Acetylcholinesterase were 5.53 and below 5.00, respectively.
Regarding `Brc1ccc(/C=N\C2CCN(Cc3ccccc3)C2)cc1` (stereo not drawn), the pIC50 was 5.93 against Cholinesterase [1], 5.76 against Beta-secretase 1 and 5.89 at Acetylcholinesterase.
For orientation: MTD means the highest dose tested that stayed within the study's limit of toxicity. In the case of `Fc1ccc(CNC2CCN(Cc3ccccc3)C2)c(F)c1` (stereo not drawn), in [6], the MTD is 1750 mg/kg. In addition, the pIC50 against Cholinesterase [1] is 6.90; against Beta-secretase 1 it was 7.01; against Acetylcholinesterase, 7.16. In data set [5], the apparent permeability (Papp) at 18 h, 25 ug/ml is 5.8 ×10⁻⁶ cm/s. Also, the inhibition entry in the data set on Rattus norvegicus [7] is “Active”. For the same molecule, the result in the data set on Rattus norvegicus [8], in the data set on Rattus norvegicus [11] and in the data set with Rattus norvegicus [13] was Active. Further, the Activity with SH-SY5Y is 66.8%; in data set [9], “Non-Toxic”; with Rattus norvegicus [10] it was “Dose-dependent effect”. Besides, the outcome in the data set on Rattus norvegicus [12] was inactive.
As for `C(=N/C1CCN(Cc2ccccc2)C1)/c1ccccc1` (stereo not drawn), the pIC50 against Cholinesterase [1] is 5.57; on Beta-secretase 1, 5.36; at Acetylcholinesterase, 5.38.
On to `Oc1ccccc1/C=N\C1CCN(Cc2ccccc2)C1` (stereo not drawn), for which the negative logarithm of the IC50 (pIC50) against Cholinesterase [1] was 5.38; against Acetylcholinesterase it was below 5.00.
